US20040235070A1, “Immune reactivity to expressed activated oncogenes for diagnosis and treatment of malignancy” (Washington Research Foundation, priority 1990, published 2004)

Tests used:
[1] = system: bcr3-abl2 peptide-specific CD4^+ T cell clones; assay: Proliferative assay of bcr3-abl2 peptide-specific CD4+ T cell clones ([3H] thymidine incorporation); type: cell-based, BALB/c mice; conditions: for [^3H] Thymidine Incorporation (c.p.m.): peptide 5 μg/ml, Table 2; for [^3H] Thymidine Incorporation (c.p.m.) / [^3H] Thymidine Incorporation (c.p.m.) after Stimulation with bcr-abl 12 peptide/proteins (μg/ml): 96-hour culture; for [^3H] Thymidine Incorporation (c.p.m.) after Stimulation with bcr3-abl2 peptide (5 μg/ml): peptides of varying lengths 5 μg/ml, 96 hour culture, Table 4; for [^3H] Thymidine Incorporation (c.p.m.) after Stimulation with bcr-abl 12 peptide/proteins (μg/ml): Table 5
Experimental: Mice (female BALB/c and C57BL/6 (B6), 6 to 8 weeks old; Jackson Laboratories, Bar Harbor, Me.) were inoculated twice at 2-week intervals by subcutaneous injection with Complete Freund's Adjuvant (Sigma Chemical Co., St. Louis, Mo.) alone or emulsified with bcr3-abl2 peptide (100 μg). Ten days after the final immunization, single cell suspensions of draining lymph nodes and spleens were prepared in medium consisting of 1:1 mixture of RPMI 1640 (Gibco Laboratories, Inc., Grand Island, N.Y.) and EHAA (Biofluids, Inc., Rockville, Md.) with 2.5×10^−5 M 2-ME, 200 U/ml penicillin, 200 U/ml streptomycin, 10 mM L-glutamine and 10% fetal calf serum. For proliferative assays, lymphocytes were cultured in 96-well plates at 2×10^5 cells per well with 4×10^5 irradiated syngeneic spleen cells (3,000 rad) and designated (total volume of 200 μl per well). Plates were incubated in a humidified atmosphere under 5% CO2 tension at 37° C. for 72 hours, and then pulsed for 18 hours with […] of [^3H]-thumidine per well. Proliferative responses of cloned T cells utilized 2×10^4 cells per well with 5×10^5 irradiated syngeneic spleen cells (3,000 rad) and designated peptide.
Lymphocytes from the draining lymph nodes of mice immunized with bcr3-abl2 peptide were cultured in 24-well culture plates at 4×10^6 cells per well with 2×10^6 irradiated syngeneic spleen cells and bcr3-abl2 peptide at 25 μg/ml (total volume 2 ml). The plates were cultured in a humidified atmosphere under 5% CO2 tension at 37° C. for 5 days then split 1:2. After 10 days, lymphocytes were restimulated at 1×10^6 lymphocytes per well in 24-well culture plates with 5×10^6 irradiated syngeneic spleen cells and peptide (25 μg/ml). Two days after the second in vitro stimulation, T cells were-plated at 0.5 cells per well in 96-well flat-bottom plates with 1×10^6 irradiated syngeneic spleen cells and rIL-2 (50 U/ml). Derived T cell clones were maintained by periodic stimulation with peptide (1 μg/ml) plus irradiated syngeneic spleen cells followed by expansion with rIL-2 (10 U/ml) every 2 weeks. T cell clones were stained with FITC-conjugated anti-Thy 1.2 (1%), or FITC-conjugated anti-Lyt2 (2%), or PE-conjugated anti-L3T4 (3%) mAbs (Becton Dickinson Immunocytochemistry Systems, Mountain View, Calif.) at 4° C. for 45 minutes.

[2] = system: spleen cells from mice immunized with p54-66[L61]; assay: Proliferative response of spleen cells from mice immunized with p54-66[L61] ras peptide; type: cell-based, C3H/HeN mice; conditions: lymphocytes from mice immunized with p54-66[L61]; FIG. 4
Experimental: This peptide is denoted as p54-66[L61] or [L61]. C3H/HeN mice were immunized twice subcutaneously at two week intervals with Ribi adjuvant alone or adjuvant emulsified with p54-66[L61] ras peptide (100 μg). Two weeks after the final immunization, spleen cells from mice injected with adjuvant alone (open bar) or adjuvant plus p54-66[L61] ras peptide (black bar) were harvested and tested in vitro for proliferative response to the indicated p54-66 ras peptide (100 μg/ml). The peptide containing the substitution of lysine (K) for glutamine at position 61 is denoted as [K61]. The data represent the mean of triplicate determinations of the c.p.m. of incorporated ^3HTdR±S.D.

Substance | [^3H] Thymidine Incorporation (c.p.m.) ([1]; T cell clone 1D2) | [^3H] Thymidine Incorporation (c.p.m.) ([1]; T cell clone 2B12) | [^3H] Thymidine Incorporation (c.p.m.) ([1]; T cell clone 2D4) | [^3H] Thymidine Incorporation (c.p.m.) ([1]; T cell clone 2E3) | [^3H] Thymidine Incorporation (c.p.m.) ([1]; T cell clone 2E10) | [^3H] Thymidine Incorporation (c.p.m.) ([1]; T cell clone 3B7) | [^3H] Thymidine Incorporation (c.p.m.) ([1]; T cell clone 3E11) | [^3H] Thymidine Incorporation (c.p.m.) ([1]; T cell clone 3G2) | [^3H] Thymidine Incorporation (c.p.m.) ([1]; T cell clone 3G3) | [^3H] Thymidine Incorporation (c.p.m.) after Stimulation with bcr3-abl2 peptide (5 μg/ml) ([1]; T cell clone 1D2) | [^3H] Thymidine Incorporation (c.p.m.) after Stimulation with bcr3-abl2 peptide (5 μg/ml) ([1]; T cell clone 2E10) | proliferation in vitro [2] | also measured
A F H G D A Q A L Q R P V A (AFHGDAQALQRPVA) [BCRI-abl2, 14 mer of p185 bcr-abl joining region, reference compound] | 315 | 385 | 147 | 461 | 137 | 277 | 398 | 583 | 351 | – | – | – | –
L T I N K E E A L Q R P (LTINKEEALQRP) [bcr2-abl2, 12 mer of p210 joining region, bcr exon 2 fused to c-abl exon 2, reference compound] | 274 | 341 | 143 | 402 | 287 | 349 | 299 | 478 | 217 | – | – | – | –
G F K Q S S K A L Q R P V A (GFKQSSKALQRPVA) [bcr3-abl2 14-mer peptide] | – | – | – | – | – | – | – | – | – | 238,297 c.p.m. | 170,085 c.p.m. | – | [^3H] Thymidine Incorporation (c.p.m.) after Stimulation with bcr-abl 12 peptide/proteins (μg/ml) ([1]; T cell clone 2E10, peptide/protein 0.04 μg/ml): 6,303 c.p.m.; [^3H] Thymidine Incorporation (c.p.m.) after Stimulation with bcr-abl 12 peptide/proteins (μg/ml) ([1]; T cell clone 2E10, peptide/protein 0.2 μg/ml): 54,896 c.p.m.; [^3H] Thymidine Incorporation (c.p.m.) after Stimulation with bcr-abl 12 peptide/proteins (μg/ml) ([1]; T cell clone 2E10, peptide/protein 1 μg/ml): 92,970 c.p.m.
G F K Q S S K A L Q R P V A S D (GFKQSSKALQRPVASD) [bcr3-abl2 16-mer] | – | – | – | – | – | – | – | – | – | 108,309 c.p.m. | 139,083 c.p.m. | – | –
IVHSATGFKQSSKALQRPVASD (IVHSATGFKQSSKALQRPVASD) [bcr3-abl2 22-mer] | – | – | – | – | – | – | – | – | – | 21,208 c.p.m. | 29,509 c.p.m. | – | –
Lys-61: p54-66 ras peptide with lysine for glutamine at position 61 (DILDTAGKEEYSA; UniProt P01112 54-66, looked up, fragment Q61K) | – | – | – | – | – | – | – | – | – | – | – | not | –
Leu-61 peptide: 13 residues 54-66 of ras p21 with leucine for glutamine at position 61 (DILDTAGLEEYSA; UniProt P01112 54-66, looked up, fragment Q61L) | – | – | – | – | – | – | – | – | – | – | – | proliferate in vitro | –
Gln-61: p54-66 ras peptide with the normal glutamine at position 61 (DILDTAGQEEYSA; UniProt P01112 54-66, looked up, fragment) | – | – | – | – | – | – | – | – | – | – | – | not | –
H S A T G F K Q S S K A L Q R P V A (HSATGFKQSSKALQRPVA) [bcr3-abl2 18-mer] | – | – | – | – | – | – | – | – | – | 150,309 c.p.m. | 224,674 c.p.m. | – | –
I V H S A T G F K Q S S (IVHSATGFKQSS) [bcr3, reference compound] | 294 | 461 | 133 | 193 | 667 | 462 | 305 | 461 | 190 | – | – | – | response of bcr3-abl2 peptide-specific T cell clones (in words) ([1]; proliferative assay with irradiated syngeneic APC): failed to respond
